The values that follow are results of earlier work, collected in patent US20110064813A1, “USE OF SALSALATE WITH OR WITHOUT CAFFEINE AND WITH OR WITHOUT OMEGA 3, AND OTHER PHARMACEUTICAL COMPOUNDS IN A DISTINCTIVELY UNIQUE NANO-PARTICULATE CAPSULE AND TABLET” (priority 2009, published 2011).

Data set [1] concerns patients with rheumatoid arthritis. As to conditions: compared with diclofenac.
The conditions of data set [2]: compared with aspirin and other NSAIDS.
Data set [3] deals with pro-thrombin time. As to conditions: unlike Aspirin.
For data set [4], the system named is HIV-infected patients.
The conditions of data set [5]: acidic conditions.
The conditions of data set [6]: administered orally.
Data set [7] relates to patients presenting with Type 2 Diabetes (T2D). The note with it: tablet forms of salsalate; T2D patients and obese patients.

On to `O=C(Oc1ccccc1C(=O)O)c1ccccc1O` [salsalate, 2-(2-Hydroxybenzoyl)oxybenzoic acid], for which the clinical efficacy result in data set [1] is “equal to diclofenac”. For the same compound, the “fecal gastrointestinal blood loss” value in data set [2] is reported as “less fecal gastrointestinal blood loss than aspirin”. For the same compound, in data set [3], the “inhibition of pro-thrombin time” value was “does not inhibit”. In addition, in data set [4] (HIV patients), the “salsalate induced liver dysfunction” value is “a significant number of HIV patients experienced salsalate induced liver dysfunction”. For the same compound, in data set [4] (HIV-infected patients), the endothelial function entry is on record as “improved endothelial function”. Besides, in data set [5], the solubility result is given as “nearly insoluble”. Also, in data set [6], the “time to full benefit (plasma salicylate steady state)” value was 3 to 4 days. Besides, the “lowering of glucose levels” value in data set [7] is given as “experienced efficacy in the lowering of glucose levels”.
